From patent US8653100B2 (AbbVie Inc., priority 2008, dated 2014)
Counter-ions that a name gives are not always drawn. Like-named read-outs stand apart in the source and are kept apart here. Each block holds one compound with its values, some of them ahead of it.

Key:
human GlyT1c = human GlyT1c (Homo sapiens (Human), UniProt P48067); test: [3H]-Glycine uptake into recombinant CHO cells expressing human GlyT1; type: cell-based; conditions: hGlyT1c_5_CHO cells, 200 nM [3H]-glycine
Method: [^3H]-Glycine uptake into recombinant CHO cells expressing human GlyT1: Human GlyT1c expressing recombinant hGlyT1c—5_CHO cells were plated at 20,000 cells per well in 96 well Cytostar-T scintillation microplates (Amersham Biosciences) and cultured to sub-confluency for 24 h. […] The plates were placed in a Wallac Microbeta (PerkinElmer) and continuously counted by solid phase scintillation spectrometry during up to 3 hours. […] IC50 calculations were made by four-parametric logistic nonlinear regression analysis (GraphPad Prism) using determinations within the range of linear increase of [^3H]-glycine incorporation between 60 and 120 min.

human GlyT1c transporter = human GlyT1c transporter (Homo sapiens (Human), UniProt P48067); test: Radioligand binding assay using recombinant CHO cell membranes expressing human GlyT1; conditions: read-out: radioligand binding Kiapp
Chain of human GlyT1c transporter (P48067 whole entry): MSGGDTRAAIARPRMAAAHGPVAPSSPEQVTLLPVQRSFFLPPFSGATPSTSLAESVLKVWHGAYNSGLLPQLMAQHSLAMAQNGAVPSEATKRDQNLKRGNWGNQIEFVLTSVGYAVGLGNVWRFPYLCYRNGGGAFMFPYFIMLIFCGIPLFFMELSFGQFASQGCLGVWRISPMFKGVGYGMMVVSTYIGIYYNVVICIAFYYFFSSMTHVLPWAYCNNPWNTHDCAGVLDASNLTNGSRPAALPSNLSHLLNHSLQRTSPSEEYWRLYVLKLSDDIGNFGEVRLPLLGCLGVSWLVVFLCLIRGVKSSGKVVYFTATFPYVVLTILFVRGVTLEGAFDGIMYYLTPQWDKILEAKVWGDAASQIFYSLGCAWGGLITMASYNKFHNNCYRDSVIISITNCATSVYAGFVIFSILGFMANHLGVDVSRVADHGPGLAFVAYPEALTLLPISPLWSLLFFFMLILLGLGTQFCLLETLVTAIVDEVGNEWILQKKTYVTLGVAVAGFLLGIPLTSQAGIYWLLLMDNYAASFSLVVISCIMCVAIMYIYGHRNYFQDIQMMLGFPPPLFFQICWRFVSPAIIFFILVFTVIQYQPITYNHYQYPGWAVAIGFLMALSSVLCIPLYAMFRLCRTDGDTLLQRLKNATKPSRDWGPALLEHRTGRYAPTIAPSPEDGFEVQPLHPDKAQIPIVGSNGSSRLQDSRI
Outline: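 Competition binding of [^3H]-(R)-NPTS (0.5 nM) to CHO membranes expressing human GlyT1c (50 μg/ml protein) in pH 7.5 Hepes/NaCl buffer with 1% DMSO, 1 h at room temperature. Non-specific binding defined with 10 μM Org24598; filtration and scintillation counting, one-site fit, Ki via Cheng-Prusoff.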

[1] = examples 88-204, radioligand not specified by footnote
[2] = radioligand [3H]-(R)-NPTS (examples 1-19, 22-52, 54-87)

Chain of human GlyT1c (P48067 whole entry): as above

Structure (SMILES): CCS(=O)(=O)NCCOc1ccc2c(c1)C(C1(c3ccc(Cl)cc3)CCC1)NCC2 (centres unmarked) [Example 7, Ethanesulfonic acid (2-{1-[1-(4-chloro-phenyl)-cyclobutyl]-1,2,3,4-tetrahydro-isoquinolin-7-yloxy}-ethyl)-amide hydrochloride]
IC50 (human GlyT1c): ≤ 100 nM
Ki (human GlyT1c transporter; [2]): ≤ 100 nM

Structure (SMILES): O=S(=O)(NCCOc1ccc2c(c1)C(C1(c3ccc(Cl)cc3)CCC1)NCC2)c1ccc2ccccc2c1 (centres unmarked) [Example 9, Naphthalene-2-sulfonic acid (2-{1-[1-(4-chloro-phenyl)-cyclobutyl]-1,2,3,4-tetrahydro-isoquinolin-7-yloxy}-ethyl)-amide hydrochloride]
IC50 (human GlyT1c): ≤ 10000 nM
Ki (human GlyT1c transporter; [2]): ≤ 10000 nM

Structure (SMILES): O=S(=O)(NCCOc1ccc2c(c1)C(C1(c3ccc(Cl)cc3)CCC1)NCC2)c1cccc2cccnc12 (centres unmarked) [Example 30, Quinoline-8-sulfonic acid (2-{1-[1-(4-chloro-phenyl)-cyclobutyl]-1,2,3,4-tetrahydro-isoquinolin-7-yloxy}-ethyl)-amide hydrochloride]
IC50 (human GlyT1c): ≤ 1000 nM
Ki (human GlyT1c transporter; [2]): ≤ 10000 nM

Structure (SMILES): CCCS(=O)(=O)NCCOc1ccc2c(c1)C(C1(c3ccc(F)cc3)CCC1)N(C(=N)N)CC2 (centres unmarked) [Example 72, 1-[1-(4-Fluorophenyl)cyclobutyl]-7-{2-[(propylsulfonyl)amino]ethoxy}-3,4-dihydroisoquinoline-2(1H)-carboximidamide acetate]
IC50 (human GlyT1c): ≤ 1000 nM
Ki (human GlyT1c transporter; [2]): ≤ 10000 nM

Structure (SMILES): CS(=O)(=O)NCCOc1cc2c(cc1F)CCNC2C1(c2ccc(Cl)cc2)CCC1 (centres unmarked) [Example 12, N-(2-{1-[1-(4-Chloro-phenyl)-cyclobutyl]-6-fluoro-1,2,3,4-tetrahydro-isoquinolin-7-yloxy}-ethyl)-methanesulfonamide hydrochloride]
IC50 (human GlyT1c): ≤ 100 nM
Ki (human GlyT1c transporter; [2]): ≤ 1000 nM

Structure (SMILES): CCCS(=O)(=O)NCCOc1ccc2c(c1)C(C1(c3ccc(F)cc3)CCC1)NCC2 (centres unmarked) [Example 65, N-[2-({1-[1-(4-Fluorophenyl)cyclobutyl]-1,2,3,4-tetrahydroisoquinolin-7-yl}oxy)ethyl]propane-1-sulfonamide hydrochloride]
IC50 (human GlyT1c): ≤ 100 nM
Ki (human GlyT1c transporter; [2]): ≤ 100 nM

Structure (SMILES): CCCNS(=O)(=O)CCCOc1ccc2c(c1)C(C1(c3ccc(Cl)cc3)CCC1)NCC2 (centres unmarked) [Example 82, 3-({1-[1-(4-Chlorophenyl)cyclobutyl]-1,2,3,4-tetrahydroisoquinolin-7-yl}oxy)-N-propylpropane-1-sulfonamide hydrochloride]
IC50 (human GlyT1c): ≤ 1000 nM

Structure (SMILES): CCCS(=O)(=O)NCCOc1ccc2c(c1)C(C1(c3ccc(Cl)cc3)CCC1)N(C(=N)NC#N)CC2 (centres unmarked) [Example 46, 1-(1-(4-Chlorophenyl)cyclobutyl)-N-cyano-7-(2-(propylsulfonamido)ethoxy)-3,4-dihydroisoquinoline-2(1H)-carboximidamide]
IC50 (human GlyT1c): ≤ 1000 nM

Structure (SMILES): Cc1nc(S(=O)(=O)NCCOc2ccc3c(c2)C(C2(c4ccc(Cl)cc4)CCC2)NCC3)cn1C (centres unmarked) [Example 52, 1-(1-(4-Chlorophenyl)cyclobutyl)-7-(2-(1,2-dimethyl-1H-imidazole-4-sulfonamido)ethoxy)-1,2,3,4-tetrahydroisoquinolinium chloride]
IC50 (human GlyT1c): ≤ 10000 nM

Structure (SMILES): Cn1cc(S(=O)(=O)NCCOc2ccc3c(c2)C(C2(c4ccc(Cl)cc4)CC2)NCC3)cn1 (centres unmarked) [Example 86, N-[2-({1-[1-(4-Chlorophenyl)cyclopropyl]-1,2,3,4-tetrahydroisoquinolin-7-yl}oxy)ethyl]-1-methyl-1H-pyrazole-4-sulfonamide]
IC50 (human GlyT1c): ≤ 100 nM

Structure (SMILES): O=S(=O)(NCCOc1ccc2c(c1)C(C1(c3ccc(Cl)cc3)CCC1)NCC2)c1c[nH]cn1 (centres unmarked) [Example 57, N-(2-(1-(1-(4-Chlorophenyl)cyclobutyl)-1,2,3,4-tetrahydroisoquinolin-7-yloxy)ethyl)-1H-imidazole-4-sulfonamide hydrochloride]
IC50 (human GlyT1c): ≤ 100 nM

Structure (SMILES): CCN(CC)S(=O)(=O)NCCOc1ccc2c(c1)C(C1(c3ccc(Cl)cc3)CCC1)NCC2(C)C (centres unmarked) [Example 69, N′-[2-({1-[1-(4-Chlorophenyl)cyclobutyl]-4,4-dimethyl-1,2,3,4-tetrahydroisoquinolin-7-yl}oxy)ethyl]-N,N-diethylsulfuric diamide hydrochloride]
IC50 (human GlyT1c): ≤ 1000 nM

The remaining lines, values ahead:

IC50 (human GlyT1c): ≤ 10000 nM
Ki (human GlyT1c transporter; [1]): ≤ 1000 nM
Structure (SMILES): O=S(=O)(CCCOc1ccc2c(c1)C(C1(c3ccc(Cl)cc3)CCC1)NCC2)Nc1ccccc1 (centres unmarked) [Example 112, 3-({1-[1-(4-Chlorophenyl)cyclobutyl]-1,2,3,4-tetrahydroisoquinolin-7-yl}oxy)-N-phenylpropane-1-sulfonamide hydrochloride]

IC50 (human GlyT1c): ≤ 100 nM
Ki (human GlyT1c transporter; [1]): ≤ 100 nM
Structure (SMILES): CC(C)(O)CS(=O)(=O)NCCOc1ccc2c(c1)C(C1(c3ccc(Cl)cc3)CCC1)NCC2 (centres unmarked) [Example 103, N-[2-({1-[1-(4-Chlorophenyl)cyclobutyl]-1,2,3,4-tetrahydroisoquinolin-7-yl}oxy)ethyl]-2-hydroxy-2-methylpropane-1-sulfonamide hydrochloride]

IC50 (human GlyT1c): ≤ 100000 nM
Ki (human GlyT1c transporter; [1]): ≤ 10000 nM
Structure (SMILES): CC(C)(C)OC(=O)N1CCN(S(=O)(=O)CCCOc2ccc3c(c2)C(C2(c4ccc(Cl)cc4)CCC2)NCC3)CC1 (centres unmarked) [Example 123, tert-Butyl 4-{[3-({1-[1-(4-chlorophenyl)cyclobutyl]-1,2,3,4-tetrahydroisoquinolin-7-yl}oxy)propyl]sulfonyl}piperazine-1-carboxylate]

IC50 (human GlyT1c): ≤ 10000 nM
Ki (human GlyT1c transporter; [1]): ≤ 1000 nM
Structure (SMILES): O=S(=O)(NCCOc1ccc2c(c1)C(C1(c3ccc(Cl)cc3)CCC1)NCC2)c1c(Cl)nc2sccn12 (centres unmarked) [Example 167, 6-Chloro-N-[2-({1-[1-(4-Chlorophenyl)cyclobutyl]-1,2,3,4-tetrahydroisoquinolin-7-yl}oxy)ethyl]imidazo[2,1-b][1,3]thiazole-5-sulfonamide hydrochloride]

IC50 (human GlyT1c): ≤ 10000 nM
Ki (human GlyT1c transporter; [1]): ≤ 10000 nM
Structure (SMILES): CCCN1CCN(S(=O)(=O)NCCOc2ccc3c(c2)C(C2(c4ccc(Cl)cc4)CCC2)NCC3)CC1 (centres unmarked) [Example 183, N-[2-({1-[1-(4-Chlorophenyl)cyclobutyl]-1,2,3,4-tetrahydroisoquinolin-7-yl}oxy)ethyl]-4-propylpiperazine-1-sulfonamide dihydrochloride]

IC50 (human GlyT1c): ≤ 10000 nM
Ki (human GlyT1c transporter; [1]): ≤ 10000 nM
Structure (SMILES): CCCNCCCS(=O)(=O)NCCOc1ccc2c(c1)C(C1(c3ccc(Cl)cc3)CCC1)NCC2 (centres unmarked) [Example 186, N-[2-({1-[1-(4-Chlorophenyl)cyclobutyl]-1,2,3,4-tetrahydroisoquinolin-7-yl}oxy)ethyl]-3-(propylamino)propane-1-sulfonamide (2E)-but-2-enedioate]

IC50 (human GlyT1c): ≤ 100 nM
Ki (human GlyT1c transporter; [1]): ≤ 100 nM
Structure (SMILES): CCCS(=O)(=O)NCCOc1ccc2c(c1)C(C1(c3ccc(Cl)c(N)c3)CCC1)NCC2 (centres unmarked) [Example 142, N-[2-({1-[1-(3-Amino-4-chlorophenyl)cyclobutyl]-1,2,3,4-tetrahydroisoquinolin-7-yl}oxy)ethyl]propane-1-sulfonamide dihydrochloride]

IC50 (human GlyT1c): ≤ 10000 nM
Ki (human GlyT1c transporter; [1]): ≤ 10000 nM
Structure (SMILES): COc1ccccc1NS(=O)(=O)CCCOc1ccc2c(c1)C(C1(c3ccc(Cl)cc3)CCC1)NCC2 (centres unmarked) [Example 121, 3-({1-[1-(4-Chlorophenyl)cyclobutyl]-1,2,3,4-tetrahydroisoquinolin-7-yl}oxy)-N-(2-methoxyphenyl)propane-1-sulfonamide hydrochloride]

IC50 (human GlyT1c): ≤ 1000 nM
Structure (SMILES): NCCS(=O)(=O)NCCOc1ccc2c(c1)C(C1(c3ccc(Cl)cc3)CCC1)NCC2 (centres unmarked) [Example 154, 2-Amino-N-[2-({1-[1-(4-chlorophenyl)cyclobutyl]-1,2,3,4-tetrahydroisoquinolin-7-yl}oxy)ethyl]ethanesulfonamide]
